{"source": "patent US12280026B2", "about": "“Use of repirinast in the prophylaxis or treatment of renal fibrosis or kidney disease” (ALGERNON PHARMACEUTICALS INC., priority 2018, dated 2025)", "system": "C57BL/6 mice with UUO surgical ligation", "assay": "Example 1: UUO mice, kidney weight evaluation (ligated vs non-ligated kidney)", "assay_type": "in vivo", "conditions": "doses of Table 1 (Telmisartan 5 mg/kg)", "description": "Male 9-12 week old C57BL/6 mice of 23-25 grams body weight were used. All mice were acclimated for a minimum of 5 days prior to the start of the study and housed individually in microisolators throughout the study in a 12:12 light-dark cycle on a standard maintenance mouse chow diet (Harlan Teklad 2018) with food and water given ad libitum. Prior to surgery, all mice were weighed for baseline body weight.\nThe UUO surgical intervention was performed according to previously described methods known in the art (Le Meur Y et al., Macrophage accumulation at a site of renal inflammation is dependent on the M-CSF/c-fms pathway, J Leukocyte Biol., 72:530-537; 2002). […]\nThe dose selected for the animal studies was determined by taking the maximum known human daily dose, dividing by the average weight of an adult (˜60-70 kg) to get a human mg/kg dose. […]\nKidney weight: The UUO was then examined in situ to ensure that the surgical ligation ties remained patent. […] Weights of both kidneys were measured using a laboratory balance.\nKidney Weight Evaluation: Kidney weight indicating, which indicates functional and pathological changes in the kidney, was evaluated by measuring the weight of both the ligated (UUO) and non-ligated kidneys as previously described. […]", "note": "“Also recorded” adds a separate entry of the source."}
{"smiles": "CCCc1nc2c(C)cc(-c3nc4ccccc4n3C)cc2n1Cc1ccc(-c2ccccc2C(=O)O)cc1", "note": "[Telmisartan, 2-(4-{[4-Methyl-6-(1-methyl-1H-1,3-benzodiazol-2-yl)-2-propyl-1H-1,3-benzodiazol-1-yl]methyl}phenyl)benzoic acid]", "values": [{"measurement": "Disparity in weight between ligated and non-ligated kidney, in words", "result": "greatest numerical reduction in the disparity between the two kidneys; also recorded: appeared to reduce the disparity in kidney size"}]}
